Assay results reported in patent US20070269830A1, “Process for the Identification of New Medical Targets” (priority 2003, published 2007).

Key:
[1] = molecular target: T1, E. coli expressed His-tagged human carbonyl reductase (CBR1) (Homo sapiens, UniProt P16152); assay: carbonyl reductase activity assay (NADPH oxidation with menadione), recombinant enzyme; format: biochemical; conditions: rate without benserazide 24.0
T1 construct: His; made in house; host or cells: E. coli
T1 sequence (P16152 1-277): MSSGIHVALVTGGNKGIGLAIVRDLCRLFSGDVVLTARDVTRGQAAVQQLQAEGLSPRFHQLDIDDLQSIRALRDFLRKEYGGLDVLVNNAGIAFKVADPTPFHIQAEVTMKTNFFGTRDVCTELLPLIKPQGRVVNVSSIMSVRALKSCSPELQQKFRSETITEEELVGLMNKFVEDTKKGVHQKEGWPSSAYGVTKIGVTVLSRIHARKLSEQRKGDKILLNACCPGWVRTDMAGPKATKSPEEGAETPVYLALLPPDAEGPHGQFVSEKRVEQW
Experimental: (§1) The carbonyl reductase activity was evaluated spectrophotometrically according to the methods of Iwata et al. 1990. Eur. J. Biochem 193, p. 75-81.: Inazu N, Ruepp B., Wirth H., Wermuth B. 1992. BBA, 1116, p. 50-56 and Imamura et al. 1993. Arch. Biochem. Biophys. 300, p. 570-576. The oxidation rate of NADPH was recorded in the presence of the specific substrate menadione at 340 nm at room temperature on a Jenway 6505 UV/VIS Spectrophotometer.
(§2) The standard assay mixture consisted of 100 mM sodium phosphate buffer pH 7.0, 0.12 mM NADPH, 0.25 mM menadione. The reaction was started by adding 5-20 μg of E. coli expressed His-tagged human carbonyl reductase (CBR1) or alternatively by adding 10 μl of mouse live lysate extract (total protein concentration of 15 mg/ml). The total volume of the reaction mixture was 1 ml. The change of the absorbance was monitored at 340 nm.
(§3) The inhibition of carbonyl reductase was determined using the assay described in example 1. In addition to menadione as a substrate, the assay mixture was supplemented with 0, 0.5, 1, 2, 3, 6, or 7.5 mM benserazide. The inhibition experiment performed with mouse liver lysate as well as with recombinant CBR1 in protein supplemented probes.

[2] = molecular target: T2, Carbonyl Reductase (CBR1) (Mus musculus, UniProt P48758); assay: drug pulldown assay with immobilized benserazide, mouse liver cell lysate; format: binding; conditions: benserazide on NHS-activated beads, mass spectrometry identification
T2 construct: from tissue; host or cells: mouse liver
T2 sequence (P48758 1-277): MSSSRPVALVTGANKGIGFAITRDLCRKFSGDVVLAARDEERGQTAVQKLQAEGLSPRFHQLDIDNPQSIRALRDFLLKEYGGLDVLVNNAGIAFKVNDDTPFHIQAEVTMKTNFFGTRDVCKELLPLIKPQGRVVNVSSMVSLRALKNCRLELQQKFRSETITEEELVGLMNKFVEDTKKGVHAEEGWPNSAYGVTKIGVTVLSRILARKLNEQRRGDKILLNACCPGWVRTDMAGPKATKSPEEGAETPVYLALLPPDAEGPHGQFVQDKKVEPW
Experimental: The compound benserazide was immobilized on NHS-activated beads (Affi Gel 10, BioRad) via its NH2-group. 300 μl of the beads (both with the immobilized. benserazide and control beads) were washed in 10 ml washing buffer A (50 mM Tris, pH 7.5; 0.1 M NaCl, 0.15% lgepal, 1.5 mM MgCl2, 0.1 mM DTT) for 5-10 min at 4° C. and centrifugation for 5 min at 1000 rpm in a Heraeus Varifuge 3 OR).
Mouse liver cell lysate (60-100 mg total protein) and 125 μl 50× protease inhibitor tablets (Roche, Complete, EDTA free) where added to the beads and the suspension was incubated for 1 h at 4° C. (while rotating). The suspension was washed 1-3 × with 10 ml washing buffer B (50 mM Tris, pH 7.5; 0.1 M NaCl, 0.15% lgepal, 1.5 mM MgCl2, 0.1 mM DTT, 1× Protease inhibitor tablet (Complete, EDTA free, Roche)) by rotating the suspension for 5-10 min at 4° C. and centrifugation at 10,000 rpm at 4° C. The beads were transferred to a 1 ml MoBiTec column and connected to a 10 ml syringe. 10 ml washing buffer B were added.
Elution was performed by adding a 5-10 fold excess of the drug relative to the beads capacity. The drug was dissolved in 500 μl washing buffer B and incubated with beads on a rotating platform for 1 h at 4° C. and subsequently eluted in an eppendorf tube. 300 μl of washing buffer B were added to the beads and eluted immediately in the same eppendorf tube. […]

[3] = system: carbonyl reductase activity in mouse liver lysate; assay: carbonyl reductase activity assay (NADPH oxidation with menadione), mouse liver lysate; format: biochemical; conditions: rate without benserazide 16.3
Experimental: as §1, §2, §3

Question: What does the source list for `NC(CO)C(=O)NNCc1ccc(O)c(O)c1O` (centres unmarked) [benserazide]?
Answer: initial rate, carbonyl reductase ([1]; 2 mM benserazide, 0.25 mM menadione, 0.12 mM NADPH): 13.7 nmol/min; initial rate, carbonyl reductase ([1]; 6 mM benserazide): 3.5 nmol/min; initial rate, carbonyl reductase ([1]; 7.5 mM benserazide): 0.3 nmol/min; binding of carbonyl reductase (CBR1) to immobilized drug [2]: Identified as a Binding Partner; initial rate, mouse liver lysate ([3]; 0.5 mM benserazide): 12.1 nmol/min; initial rate, mouse liver lysate ([3]; 1 mM benserazide): 8.6 nmol/min; initial rate, mouse liver lysate ([3]; 2 mM benserazide): 1.2 nmol/min; initial rate, mouse liver lysate ([3]; 3 mM benserazide): 1.3 nmol/min
